Among the data in patent publication US20230183237A1, “COMPETITIVE AND NONCOMPETITIVE INHIBITORS OF THE MUSCARINIC ACETYLCHOLINE RECEPTOR M5” (Vanderbilt University, priority 2020, published 2023) are IC50 values, retold here.

Each structure is given as a SMILES string. Like-named read-outs stand apart in the source and are kept apart here. A value given as a limit tells only on which side of the number the result lay.

The experiment concerns the target T1, hM5 (Homo sapiens, UniProt P08912).
T1 construct: expressed in transfected cells
T1 sequence (P08912 1-532): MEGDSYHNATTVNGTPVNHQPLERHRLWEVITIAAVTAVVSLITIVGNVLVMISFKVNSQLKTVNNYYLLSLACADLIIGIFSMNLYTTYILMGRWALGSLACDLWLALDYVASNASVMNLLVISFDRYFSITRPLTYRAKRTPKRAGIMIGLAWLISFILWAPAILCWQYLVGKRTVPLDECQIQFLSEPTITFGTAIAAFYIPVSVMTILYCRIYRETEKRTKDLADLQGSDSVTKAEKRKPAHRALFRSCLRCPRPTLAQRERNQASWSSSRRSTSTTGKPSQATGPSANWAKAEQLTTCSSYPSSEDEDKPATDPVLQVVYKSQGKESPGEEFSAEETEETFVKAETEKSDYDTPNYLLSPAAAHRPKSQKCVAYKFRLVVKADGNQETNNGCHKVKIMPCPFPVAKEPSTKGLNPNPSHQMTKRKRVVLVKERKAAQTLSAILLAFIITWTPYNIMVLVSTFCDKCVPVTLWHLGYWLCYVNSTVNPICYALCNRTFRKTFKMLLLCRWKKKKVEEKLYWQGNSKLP
Nature of the experiment: Calcium mobilization concentration-response (IC50 vs EC80 acetylcholine), CHO hM5. It is filed as cell-based. The note with it: CELL LINE hM5, read-out: IC50. A digest of the protocol: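 CHO cells stably expressing hM5, dye-loaded, in HBSS/20 mM HEPES/2.5 mM probenecid, pH 7.4. Compounds were pre-incubated 140 s before an EC80 acetylcholine challenge, with calcium flux read kinetically.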

Setting [1] is: calcium mobilization, EC80 acetylcholine addition.

For `O=S(=O)(c1ccc2ncccc2c1)N1CCC(c2cc3cc[nH]c3cn2)CC1` [Compound 26, 6-((4-(1H-pyrrolo[2,3-c]pyridin-5-yl)piperidin-1-yl)sulfonyl)quinoline], the IC50 under setting [1] is over 10000 nM.

Take `Cc1cc2ncnn2cc1C1CCN(S(=O)(=O)c2ccc3c(cnn3C)c2)CC1` [Compound 175, 7-methyl-6-(1-((1-methyl-1H-indazol-5-yl)sulfonyl)piperidin-4-yl)-[1,2,4]triazoto[1,5-a]pyridine]: the IC50 under setting [1] was over 10000 nM.

With `Cc1cc2ncnn2cc1C1CCN(S(=O)(=O)c2cnn3c2CCC3)C(C)C1` (stereo not shown) [Compound 363, 6-(1-((5,6-dihydro-4H-pyrrolo[1,2-b]pyrazol-3-yl)sulfonyl)-2-methylpiperidin-4-yl)-7-methyl-[1,2,4]triazolo[1,5-a]pyridine], the half-maximal inhibitory concentration (IC50) under setting [1] is 618 nM.

Turning to `Cc1cc2c(cc1S(=O)(=O)N1CCC(c3nn4ncnc4cc3C)CC1)OCO2` [Compound 183, 7-methyl-6-(1-((6-methylbenzo[d][1,3]dioxol-5-yl)sulfonyl)piperidin-4-yl)-[1,2,4]triazolo[1,5-b]pyridazine], the concentration for half-maximal inhibition (IC50) under setting [1] is over 10000 nM.

On to `Cc1cc2ncccc2cc1C1CCN(S(=O)(=O)c2cnn(C)c2CC#N)CC1` [Compound 461, 2-(1-methyl-4-((4-(7-methylquinolin-6-yl)piperidin-1-yl)sulfonyl)-1H-pyrazol-5-yl)acetonitrile], for which, for the setting “vs EC80 acetylcholine”, the IC50 was 1280 nM.

With `Cc1ncc(S(=O)(=O)N2CCC(c3cnc(N(C)C)cc3C)CC2)s1` [Compound 552, N.N,4-trimethyl-5-(1-((2-methylthiazol-5-yl)sulfonyl)piperidin-4-yl)pyridin-2-amine], the IC50 (vs EC80 acetylcholine) came to 94 nM.

Turning to `[2H]C1([2H])CC(c2cn3ncnc3cc2F)CC([2H])([2H])N1S(=O)(=O)c1cnc2sccn12` [Compound 538, 5-((4-(7-fluoro-[1,2,4]triazolo[1,5-a]pyridin-6-yl)piperidin-1-yl-2,2,6,6-d4)sulfonyl)imidazo[2,1-b]thiazole], for the setting “vs EC80 acetylcholine”, the half-inhibitory concentration (IC50) stood at 125 nM.

Take `Cc1cc(S(=O)(=O)N2CCC(c3cn4ncnc4c(F)c3C)CC2)sn1` [Compound 485, 5-((4-(8-fluoro-7-methyl-[1,2,4]triazolo[1,5-a]pyridin-6-yl)piperidin-1-yl)sulfonyl)-3-methylisothiazole]: for the setting “vs EC80 acetylcholine”, the IC50 is 17 nM.

On to `O=S(=O)(c1ccc2ncccc2c1)N1CCC(c2cc3[nH]ccc3cn2)CC1` [Compound 31, 6-((4-(1H-pyrrolo[3,2-c]pyridin-6-yl)piperidin-1-yl)sulfonyl)quinoline], for which, under setting [1], the IC50 was over 10000 nM.

As to `Cc1cc2c(cc1S(=O)(=O)N1CCC(c3ccc4ncnn4c3C)CC1)C(C)CO2` (stereo not shown) [Compound 85, 6-(1-((3,6-dimethyl-2,3-dihydrobenzofuran-5-yl)sulfonyl)piperidin-4-yl)-5-methyl-[1,2,4]triazolo[1,5-a]pyridine], the IC50 under setting [1] came to 6300 nM.

As for `Cn1ncc(S(=O)(=O)N2CCC(c3ccc4c(c3)OCO4)CC2)c1Cl` [Compound 357, 4-(benzo[d][1,3]dioxol-5-yl)-1-((5-chloro-1-methyl-1H-pyrazol-4-yl)sulfonyl)piperidine], the concentration for half-maximal inhibition (IC50) under setting [1] turned out to be 384 nM.

Regarding `COc1cc2ncnn2cc1C1CCN(S(=O)(=O)c2ccc3c(c2)C(C)CO3)CC1` (stereo not shown) [Compound 90, 7-methoxy-6-(1-((3-methyl-2,3-dihydrobenzofuran-5-yl)sulfonyl)piperidin-4-yl)-[1,2,4]triazolo[1,5-a]pyridine], the IC50 under setting [1] amounted to 3100 nM.

`Cc1cc2nccn2cc1C1CCN(S(=O)(=O)c2cnn(C)c2Cl)CC1` [Compound 581, 6-(1-((5-chloro-1-methyl-1H-pyrazol-4-yl)sulfonyl)piperidin-4-yl)-7-methylimidazo[1,2-a]pyridine]: the IC50 (vs EC80 acetylcholine) was found to be 25 nM.

Take `O=S(=O)(c1cnn2cccnc12)N1CCC(c2cn3ncnc3cc2F)CC1` [Compound 443, 7-fluoro-6-(1-(pyrazolo[1,5-a]pyrimidin-3-ylsulfonyl)piperidin-4-yl)-[1,2,4]triazolo[1,5-a]pyridine]: under “vs EC80 acetylcholine”, the half-inhibitory concentration (IC50) was over 10000 nM.

Take `Cc1cc2ncnn2nc1C1=CCN(S(=O)(=O)c2ccc3c(c2)N(C)CCO3)CC1` [Compound 170, 4-methyl-6-((4-(7-methyl-[1,2,4]triazolo[1,5-b]pyridazin-6-yl)-3,6-dihydropyridin-1(2H)-yl)sulfonyl)-3,4-dihydro-H-benzo[b][1,4]oxazine]: the IC50 under setting [1] is over 10000 nM.

As to `COc1cc2ncnn2cc1C1CCN(S(=O)(=O)c2ccc3c(c2)CCO3)CC1` [Compound 80, 6-(1-((2,3-dihydrobenzofuran-5-yl)sulfonyl)piperidin-4-yl)-7-methoxy-[1,2,4]triazolo[1,5-a]pyridine], the half-inhibitory concentration (IC50) under setting [1] is over 10000 nM.

For `Cc1ncc(S(=O)(=O)N2CCC(c3cn4ccnc4cc3C)CC2)s1` [Compound 583, 2-methyl-5-((4-(7-methylimidazo[1,2-a]pyridin-6-yl)piperidin-1-yl)sulfonyl)thiazole], the IC50 (vs EC80 acetylcholine) was found to be 2070 nM.

As for `Cc1c(C2CCN(S(=O)(=O)c3cnn(C(F)F)c3C)CC2)cn2ncnc2c1F` [Compound 269, 6-(1-((1-(difluoromethyl)-5-methyl-1H-pyrazol-4-yl)sulfonyl)piperidin-4-yl)-8-fluoro-7-methyl-[1,2,4]triazolo[1,5-a]pyridine], the IC50 under setting [1] is 326 nM.

As to `Cn1ncc(S(=O)(=O)N2CCC(c3cn4ncnc4cc3F)CC2)c1CN` [Compound 530, (4-((4-(7-fluoro-[1,2,4]triazolo[1,5-a]pyridin-6-yl)piperidin-1-yl)sulfonyl)-1-methyl-1H-pyrazol-5-yl)methanamine], under “vs EC80 acetylcholine”, the half-inhibitory concentration (IC50) is over 10000 nM.

Regarding `COc1c(S(=O)(=O)N2CCC(c3cn4ncnc4c(F)c3C)CC2)cnn1C` [Compound 576, 8-fluoro-6-(1-((5-methoxy-1-methyl-1H-pyrazol-4-yl)sulfonyl)piperidin-4-yl)-7-methyl-[1,2,4]triazolo[1,5-a]pyridine], the 50% inhibitory concentration (IC50) (vs EC80 acetylcholine) stood at 19 nM.

With `Cc1cc2ncnn2cc1C1=CCN(S(=O)(=O)c2ccc3c(c2)C(C)(C)CO3)CC1` [Compound 64, 6-(1-((3,3-dimethyl-2,3-dihydrobenzofuran-5-yl)sulfonyl)-1,2,3,6-tetrahydropyridin-4-yl)-7-methyl-[1,2,4]triazolo[1,5-a]pyridine], the half-maximal inhibitory concentration (IC50) under setting [1] is over 10000 nM.

As for `Cc1ncc(S(=O)(=O)N2CCC(F)(c3cn4ncnc4cc3C)CC2)o1` [Compound 560, 5-((4-fluoro-4-(7-methyl-[1,2,4]triazolo[1,5-a]pyridin-6-yl)piperidin-1-yl)sulfonyl)-2-methyloxazole], for the setting “vs EC80 acetylcholine”, the IC50 was 3140 nM.

Consider `Cc1cc2ncnn2cc1C1CCN(S(=O)(=O)c2cccc3nn(C)cc23)CC1` [Compound 290, 7-methyl-6-(1-((2-methyl-2H-indazol-4-yl)sulfonyl)piperidin-4-yl)-[1,2,4]triazolo[1,5-a]pyridine], for which, under setting [1], the IC50 stood at 1200 nM.

Take `[2H]C1([2H])CC(c2cn3ncnc3cc2C(F)F)CC([2H])([2H])N1S(=O)(=O)c1cnc(C)o1` [Compound 594, 5-((4-(7-(difluoromethyl)-[1,2,4]triazolo[1,5-a]pyridin-6-yl)piperidin-1-yl-2,2,6,6-d4)sulfonyl)-2-methyloxazole]: for the setting “vs EC80 acetylcholine”, the 50% inhibitory concentration (IC50) came to 228 nM.

`[2H]C1([2H])CC(c2cn3ncnc3cc2F)CC([2H])([2H])N1S(=O)(=O)c1cnc(C)o1` [Compound 567, 5-((4-(7-fluoro-[1,2,4]triazolo[1,5-a]pyridin-6-yl)piperidin-1-yl-2,2,6,6-d4)sulfonyl)-2-methyloxazole]: the IC50 (vs EC80 acetylcholine) turned out to be 1390 nM.

For `Cc1cnc2ccccc2c1C1=CCN(S(=O)(=O)c2cnn(C)c2Cl)CC1` [Compound 427, 4-(1-((5-chloro-1-methyl-1H-pyrazol-4-yl)sulfonyl)-1,2,3,6-tetrahydropyridin-4-yl)-3-methylquinoline], for the setting “vs EC80 acetylcholine”, the half-maximal inhibitory concentration (IC50) is 32 nM.

For the compound `Cn1cc(S(=O)(=O)N2CCC(c3cn4ncnc4cc3C(F)(F)F)CC2)nn1` [Compound 563, 6-(1-((1-methyl-1H-1,2,3-triazol-4-yl)sulfonyl)piperidin-4-yl)-7-(trifluoromethyl)-[1,2,4]triazolo[1,5-a]pyridine], the IC50 (vs EC80 acetylcholine) came out at 234 nM.

For `Cc1c(C2CCN(S(=O)(=O)c3cnc(C)n3C)CC2)cn2ncnc2c1F` [Compound 304, 6-(1-((1,2-dimethyl-1H-imidazol-5-yl)sulfonyl)piperidin-4-yl)-8-fluoro-7-methyl-[1,2,4]triazolo[1,5-a]pyridine], under setting [1], the IC50 turned out to be 43 nM.

`Cc1cc2nccn2nc1C1CCN(S(=O)(=O)c2ccc3c(c2)OCO3)CC1` [Compound 40, 6-(1-(benzo[d][1,3]dioxol-5-ylsulfonyl)piperidin-4-yl)-7-methylimidazo[1,2-b]pyridazine]: the IC50 under setting [1] was over 10000 nM.

Regarding `CC(=O)NCc1c(S(=O)(=O)N2CCC(c3cn4ncnc4cc3C)CC2)cnn1C` [Compound 543, N-((1-methyl-4-((4-(7-methyl-[1,2,4]triazolo[1,5-a]pyridin-6-yl)piperidin-1-yl)sulfonyl)-1H-pyrazol-5-yl)methyl)acetamide], the IC50 (vs EC80 acetylcholine) is over 10000 nM.

`Cc1c(C2CCN(S(=O)(=O)c3cnn(C)c3C#N)CC2)cn2ncnc2c1F` [Compound 438, 4-((4-(8-flooro-7-methyl-[1,2,4]triazolo[1,5-a]pyridin-6-yl)piperidin-1-yl)sulfonyl)-1-methyl-1H-pyrazole-5-carbonitrile]: for the setting “vs EC80 acetylcholine”, the IC50 was 26 nM.

The IC50 is the concentration that inhibits the measured activity by half.
